Laboratory results taken from patent USRE39264E1, “Pharmaceutical combination” (Medivir AB, priority 1996, dated 2006).

Assays:
[1] = tested on: Human HSV-1 (strain C42 or SC16); experiment: Experiment 1: combination creams of foscarnet and an antiinflammatory substance in the animal model for recurrent herpes infection; format: in vivo, Balb/C mice; conditions: for Compounded value ± s.d., Ear thickness / Compounded value ± s.d., Lesion score: cream day 4-7 after infection three times daily, mean cumulative over days 4-12, 15 and 21, ATI day 2; for Compounded value ± s.d., Lesion score: score scale 0-4; for Ear thickness (% of placebo): cumulative ear thickness; for Ear thickness (% of placebo) / Lesion score (% of placebo): placebo set to 100%; for Lesion score (% of placebo): cumulative lesion score
Procedure: This transport will take approximately 3-4 days. […] Budesonide and lidocaine were selected for testing as examples of antiinflammatory compounds. The foscarnet cream Foscarnet Cream was prepared as described in Example 1. The cream base without drug was used as placebo. The cream base described above was also mixed with budesonide cream (0.025%, […]-Brocades, The Netherlands) to obtain suitable concentrations for treatment. […] Foscarnet, the two antiinflammatory substances, as well as the two combination creams were tested in the animal model described, with ten animals in each group. The respective cream was applied day 4-7 after infection three times daily.

[2] = tested on: Human HSV-1 (strain C42 or SC16); experiment: Experiment 2: sequential test of foscarnet cream and an antiinflammatory cream in the animal model for recurrent herpes infection
Excerpt: In the novel animal model, virus is inoculated in the neck of a mouse. The virus will then be transported through the nerves to the skin of the corresponding ear. This transport will take approximately 3-4 days. On day 2 the animals are given immune cells with reactivity against the infecting virus. Subsequently, when the virus arrives at the ear, the animal instantly mobilises an effective immune response against the virus, thus mimicking the clinical situation of a recurrent herpes infection.
The development of zosteriform spread infection is then recorded by daily inspection of the occurrence of lesions on the pinna and swelling of the ear.
The lesions are scored on a scale from 0 to 4 as follows: • 0: no lesions on the ear • 1: isolated zosteriform lesions on the ear • 2: mild ulceration of zosteriform lesions on the ear • 3: moderate ulceration of zosteriform lesions on the ear • 4: severe ulceration of zosteriform lesions on the ear
Swelling of the ear was assessed by measuring the thickness of the ears using an engineers micrometer, as described by Kristofferson et al. The titre of infectious virus in the ear was measured as described by Kristofferson et al, except that BHK (baby hamster kidney) cells were used in addition.
On day 2 after infection the animals are given adoptive transfer of immunity, ATI, against HSV-1 by intravenous injection of 2×10^7 lymph node cells into the tail. Said lymph node cells had been prepared by injecting HSV-1 (10^5 pfu, strain C42 or strain SC16) into the pinna of both ears of anaesthetisized female Balb/C mice (16-18 g). Seven days post infection the animals are sacrificed by cervical dislocation, the draining lymph nodes are removed, and a suspension of lymph node cells in phosphate buffered saline is prepared by means of a micro mesh.
On day 4 after the infection and for 4 days, a composition to be tested as to activity against recurrent herpes is distributed equally in an amount of approximately 25 mg of cream on each side of the ear, every 8 h.
In this experiment the animals were treated with two different formulations 2 hours apart. First the foscarnet cream was applied and 2 hours later the antiinflammatory formulation. This was repeated three times daily during the treatment period (day 4-7 after infection).
The following substances were tested: foscarnet (3%, Foscarnet Cream), budesonide (0.025%, Preferid®, Gist-Brocades, The Netherlands), hydrocortisone (1%, Hydrokortison kräm 1% ACO, Kabi Pharmacia AB, Sweden), lidocaine (5%, Xylocaine®, Astra AB) and ketoprofen (2.5%, Oruvail®, Rhone-Poulenc Rorer NS, Denmark)

[3] = tested on: Human HSV-1 (strain C42 or SC16); experiment: Experiment 3: combination creams of an antiviral and an anti-inflammatory substance in the animal model for recurrent herpes infection; format: in vivo, Balb/C mice; conditions: for Lesion score (% of placebo) / ear thickness (% of placebo): placebo set to 100%
Procedure: Human HSV-1 (2×10^5 plaque forming units, pfu, strain C42 or SC16) is inoculated into the neck of groups of 10-18 female in-bred Balb/C mice (16-18 g) as described by Kristofferson et al. (“Limited efficacy of inhibitors of herpes simplex virus DNA synthesis in murine models of recrudescent disease”, J. Gen. Virol. 1988; 69:1157-66). The development of zosteriform spread infection is then recorded by daily inspection of the occurrence of lesions on the pinna and swelling of the ear.
The same animal model with ten animals in each group was used.

recurrent HSV infections = conditions: oral formulation, used after the appearance of symptoms; cited from earlier work
[4] = topical cream three times daily days 4-7 after infection, ATI day 2
[5] = systemic treatment, 50 mg/kg injected intra-peritoneally three times daily

Row | Compound | Compounded value ± s.d., Ear thickness [1] | Compounded value ± s.d., Lesion score [1] | Ear thickness (% of placebo) [1] | Lesion score (% of placebo) [1] | Mean cumulative value ± s.d., ear thickness [3, 4] | Mean cumulative value ± s.d., lesion score [3, 4] | Lesion score (% of placebo) ([3]; topical cream) | ear thickness (% of placebo) ([3]; topical cream) | further results
1 | CCN(CC)CC(=O)Nc1c(C)cccc1C [Lidocaine] | 3.6 ± 0.3 mm | 9 ± 2 | 100 % of placebo | 98 % of placebo | – | – | – | – | Effect on ear thickness / inflammation ([1]; compared to placebo or single creams): no effect
2 | O=C(O)Cc1ccccc1Nc1c(Cl)cccc1Cl [diclofenac] | – | – | – | – | – | – | – | – | Side-effects of topical NSAID ([2]; topical gel, probably systemic absorption in too high amounts): toxic side-effects
3 | COc1ccc2c(c1)c(CC(=O)O)c(C)n2C(=O)c1ccc(Cl)cc1 [indomethacin] | – | – | – | – | – | – | – | – | Side-effects of topical NSAID ([2]; mouse, in vivo): toxic side-effects
4 | C[C@]12CCC(=O)C=C1CC[C@@H]1[C@@H]2[C@@H](O)C[C@@]2(C)[C@H]1CC[C@]2(O)C(=O)CO [Hydrocortisone] | – | – | – | – | 2.0 ± 0.2 mm | 6.0 ± 1.3 | 88 % of placebo | 61 % of placebo | –
5 | O=C(O)P(=O)(O)O [Foscarnet, Trisodium phosphonoformate hexahydrate] | 3.0 ± 0.4 mm | 7.5 ± 2.5 | 82 % of placebo | 82 % of placebo | 3.3 ± 0.2 mm | 7.3 ± 1.2 | 107 % of placebo | 98 % of placebo | Virus titre in the ear ± s.d. on d 7 ([2]; ATI +, day 7 after infection): 3.25 ± 0.49 log10pfu/ml; Ear thickness (% of placebo) ([2]; cumulative ear thickness, placebo set to 100%): 88 % of placebo; Lesion score (% of placebo) ([2]; cumulative lesion score, placebo set to 100%): 84 % of placebo; Reduction of virus titre compared to placebo-treated animals ([2]; day 7 after infection): about tenfold; Mean cumulative value ± s.d., lesion score ([2]; foscarnet cream, 2 hours later antiinflammatory cream, three times daily day 4-7 after infection, ATI day 2): 4.8 ± 2.0; Mean cumulative value ± s.d., Ear thickness ([2]; foscarnet cream, 2 hours later antiinflammatory cream, three times daily day 4-7 after infection, measured as in Experiment 1): 2.8 ± 0.3; Effect on ear thickness ([2]; in comparison to placebo): small reduction; Effect on lesion score ([2]; in comparison to placebo): small reduction
6 | Nc1nc2c(ncn2COCCO)c(=O)[nH]1 [Acyclovir] | – | – | – | – | 3.3 ± 0.3 mm | 8.0 ± 1.3 | 118 % of placebo | 100 % of placebo | Shortening of healing time (recurrent HSV infections): no more than approximately one day; ear thickness (% of placebo) ([3]; systemic treatment, 50 mg/kg i.p. three times daily): 88 % of placebo; Mean cumulative value ± s.d., ear thickness [3, 5]: 3.0 ± 0.4 mm; Mean cumulative value ± s.d., lesion score [3, 5]: 7.0 ± 1.6
7 | CCCC1O[C@@H]2C[C@H]3[C@@H]4CCC5=CC(=O)C=C[C@]5(C)[C@H]4[C@@H](O)C[C@]3(C)[C@]2(C(=O)CO)O1 (stereo partly drawn) [Budesonide] | 2.1 ± 0.4 mm | 8.8 ± 1.8 | 58 % of placebo | 96 % of placebo | – | – | – | – | –
